Experimental data published in the NIST ThermoML archive (doi:10.1016/j.fluid.2016.09.021).
Numbers after ± are expanded uncertainties.

Conditions: Liquid, Vibrating tube method

Cc1ccccc1 [toluene]
mass density [kg/m3]
Conditions | 293 K | 313 K | 333 K | 353 K | 373 K
2000 kPa | 871.2 ± 2 | 852.2 ± 2 | 833 ± 2 | 814.2 ± 2.1 | 794.2 ± 2.1
3000 kPa | 871.9 ± 2 | 853 ± 2 | 834 ± 2 | 815.2 ± 2 | 795.4 ± 2.1
4000 kPa | 872.6 ± 2 | 853.9 ± 2 | 834.9 ± 2 | 816.3 ± 2.1 | 796.6 ± 2.1
5000 kPa | 873.2 ± 2 | 854.6 ± 2 | 835.8 ± 2 | 817.3 ± 2 | 797.8 ± 2.1
10000 kPa | 876.8 ± 2 | 858.6 ± 2 | 840.2 ± 2 | 822.4 ± 2 | 803.8 ± 2.1
20000 kPa | 883.4 ± 2 | 866.1 ± 2 | 848.2 ± 2 | 831.5 ± 2 | 814 ± 2.1
30000 kPa | 889.3 ± 2 | 872.9 ± 2 | 855.9 ± 2 | 840.1 ± 2 | 823.5 ± 2.1
40000 kPa | 895.1 ± 2 | 879 ± 2 | 863 ± 2 | 847.6 ± 2 | 832 ± 2.1
50000 kPa | 900.5 ± 2 | 884.8 ± 2 | 869.2 ± 2 | 854.7 ± 2 | 840.2 ± 2.1
60000 kPa | 905.8 ± 2 | 890.4 ± 2 | 875.6 ± 2 | 861.5 ± 2.1 | 847.2 ± 2.1
70000 kPa | 910.8 ± 2 | 896 ± 2 | 881.5 ± 2 | 867.7 ± 2.1 | 853.9 ± 2.1
80000 kPa | 915.8 ± 2 | 901.2 ± 2 | 887.1 ± 2.1 | 873.8 ± 2.1 | 860.3 ± 2.1
90000 kPa | 920.4 ± 2 | 906.3 ± 2 | 892.3 ± 2.1 | 879.6 ± 2.1 | 866.6 ± 2.1
100000 kPa | 924.8 ± 2 | 911 ± 2 | 897.6 ± 2.1 | 884.9 ± 2.1 | 872.2 ± 2.1
110000 kPa | 929.4 ± 2 | 915.7 ± 2 | 902.5 ± 2.1 | 890.3 ± 2.1 | 877.8 ± 2.1
120000 kPa | 933.6 ± 2 | 920.3 ± 2 | 907.3 ± 2.1 | 895.4 ± 2.1 | 883.3 ± 2.1
130000 kPa | 938 ± 2 | 924.8 ± 2 | 912 ± 2.1 | 900.3 ± 2.1 | 888.5 ± 2.1
135000 kPa | 939.9 ± 2 | 927 ± 2 | 914.2 ± 2.1 | 902.6 ± 2.1 | 890.8 ± 2.1
137500 kPa | 940.9 ± 2 | 927.9 ± 2 | 915.4 ± 2.1 | 903.7 ± 2.1 | 892 ± 2.1
